Measured values from patent US20160212997A1, “AGRICULTURAL CHEMICALS” (REDAG CROP PROTECTION LTD, priority 2013, published 2016).

Columns and labels:
Type in all cases: in vivo
Tomato moths [1] = assay: Potter tower spray on tomato moths, knockdown and mortality
aphids, Myzus persicae = assay: Potter tower spray on aphids, knockdown and mortality; conditions: Aphids
Method in brief: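 Ten aphids (mixed sex and age) per Petri dish on a leaf disc were sprayed by Potter tower with compounds at five concentrations in DMSO. Knockdown and mortality were scored at 24 and 48 hours, five replicates per treatment, alongside carrier-only and untreated controls.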

[2] = test system: red spider mites, Tetranychus urticae; assay: Potter tower spray on red spider mites, knockdown and mortality; conditions: Spider mites
Tomato moths [3] = assay: Potter tower spray on tomato moths, knockdown and mortality; remark: listed apart in the source
From the text: (§1) The compounds were screened at a range of five concentrations, diluted in DMSO. Some of the compounds were screened against aphids, whitefly and red spider mites and other compounds were screened against cabbage moth, and diamond black moths. A carrier only and an untreated control will also be conducted. Treatments were applied directly onto the insects within Petri dishes, using a potter tower.
(§2) Twenty mites and ten aphids, scales and moth larvae were placed within a Petri dish, lined with a suitable leaf disc on a damp cotton wool pad. Scales were already on leaves. The Petri dishes were then sprayed using a potter tower. The number of knocked down and anthropods were assessed at 24 and 48 hours post treatment. Five replicates were be performed for each treatment, for each species.

[4] = test system: Cabbage moth, Mamestra brassicae; assay: Potter tower spray on cabbage moth larvae, knockdown and mortality; conditions: Cabbage moths
From the text: The compounds were screened for insecticidal efficacy against aphids, Myzus persicae, Cabbage moth, Mamestra brassicae, diamond black moths, Plutella xylostella, red spider mites, Tetranychus urticae, whitefly, Trialeurodes vaporariorum, in terms of knockdown and mortality.
Myzus persicae, Cabbage moth, Mamestra brassicae, diamond back moths, Plutella xylostella, red spider mites, Tetranychus urticae, whitefly, Trialeurodes vaporariorum, were obtained from specified laboratory cultures. Mixed sex and age aphids and mites, moth larvae and whitefly scale infested leaves were used in the experiments. Environmental conditions were closely monitored and recorded and were within the optimal range of the target species.
as §1, §2

CC(c1ccc(C(F)(F)F)nc1)S(C)(=O)=NC#N (stereo not shown) [Compound 11, N-[Methyl-oxo-[1-[6-(trifluoromethyl)-3-pyridyl]ethyl]-λ^6-sulfanylidene]cyanamide, reference compound]
percentage control (Tomato moths [1]; 12.5 g/ha, 48 h): E (A percentage control of from 1 to 19 is indicated by the letter E) | percentage control (Tomato moths [1]; 100 g/ha, 24 h): E (A percentage control of from 1 to 19 is indicated by the letter E) | percentage control (aphids, Myzus persicae; 12.5 g/ha, 24 h): C (A percentage control of from 40 to 59 is indicated by the letter C) | percentage control (aphids, Myzus persicae; 12.5 g/ha, 48 h): B (A percentage control of from 60 to 79 is indicated by the letter B) | percentage control (aphids, Myzus persicae; 25 g/ha, 24 h): E (A percentage control of from 1 to 19 is indicated by the letter E) | percentage control (aphids, Myzus persicae; 25 g/ha, 48 h): B (A percentage control of from 60 to 79 is indicated by the letter B) | percentage control (aphids, Myzus persicae; 50 g/ha, 24 h): D (A percentage control of from 20 to 39 is indicated by the letter D) | percentage control (aphids, Myzus persicae; 50 g/ha, 48 h): B (A percentage control of from 60 to 79 is indicated by the letter B) | percentage control (aphids, Myzus persicae; 100 g/ha, 24 h): A (A percentage control of from 80 to 100 is indicated by the letter A) | percentage control (aphids, Myzus persicae; 100 g/ha, 48 h): A (A percentage control of from 80 to 100 is indicated by the letter A) | percentage control (aphids, Myzus persicae; 200 g/ha, 24 h): B (A percentage control of from 60 to 79 is indicated by the letter B) | percentage control (aphids, Myzus persicae; 200 g/ha, 48 h): A (A percentage control of from 80 to 100 is indicated by the letter A) | percentage control ([2]; 12.5 g/ha, 24 h): E (A percentage control of from 1 to 19 is indicated by the letter E) | percentage control ([2]; 12.5 g/ha, 48 h): D (A percentage control of from 20 to 39 is indicated by the letter D) | percentage control ([2]; 25 g/ha, 24 h): E (A percentage control of from 1 to 19 is indicated by the letter E) | percentage control ([2]; 25 g/ha, 48 h): E (A percentage control of from 1 to 19 is indicated by the letter E) | percentage control ([2]; 50 g/ha, 24 h): D (A percentage control of from 20 to 39 is indicated by the letter D) | percentage control ([2]; 50 g/ha, 48 h): D (A percentage control of from 20 to 39 is indicated by the letter D) | percentage control ([2]; 100 g/ha, 24 h): D (A percentage control of from 20 to 39 is indicated by the letter D) | percentage control ([2]; 100 g/ha, 48 h): D (A percentage control of from 20 to 39 is indicated by the letter D) | percentage control ([2]; 200 g/ha, 24 h): C (A percentage control of from 40 to 59 is indicated by the letter C) | percentage control ([2]; 200 g/ha, 48 h): C (A percentage control of from 40 to 59 is indicated by the letter C) | percentage control (Tomato moths [3]; 12.5 g/ha, 24 h): 0% | percentage control (Tomato moths [3]; 25 g/ha, 24 h): E (A percentage control of from 1 to 19 is indicated by the letter E) | percentage control (Tomato moths [3]; 25 g/ha, 48 h): E (A percentage control of from 1 to 19 is indicated by the letter E) | percentage control (Tomato moths [3]; 50 g/ha, 24 h): 0% | percentage control (Tomato moths [3]; 50 g/ha, 48 h): E (A percentage control of from 1 to 19 is indicated by the letter E) | percentage control (Tomato moths [3]; 100 g/ha, 48 h): E (A percentage control of from 1 to 19 is indicated by the letter E) | percentage control (Tomato moths [3]; 200 g/ha, 24 h): E (A percentage control of from 1 to 19 is indicated by the letter E) | percentage control (Tomato moths [3]; 200 g/ha, 48 h): E (A percentage control of from 1 to 19 is indicated by the letter E) | percentage control ([4]; 12.5 g/ha, 24 h): E (A percentage control of from 1 to 19 is indicated by the letter E) | percentage control ([4]; 12.5 g/ha, 48 h): E (A percentage control of from 1 to 19 is indicated by the letter E) | percentage control ([4]; 25 g/ha, 24 h): E (A percentage control of from 1 to 19 is indicated by the letter E) | percentage control ([4]; 25 g/ha, 48 h): E (A percentage control of from 1 to 19 is indicated by the letter E) | percentage control ([4]; 50 g/ha, 24 h): E (A percentage control of from 1 to 19 is indicated by the letter E) | percentage control ([4]; 50 g/ha, 48 h): E (A percentage control of from 1 to 19 is indicated by the letter E) | percentage control ([4]; 100 g/ha, 24 h): E (A percentage control of from 1 to 19 is indicated by the letter E) | percentage control ([4]; 100 g/ha, 48 h): E (A percentage control of from 1 to 19 is indicated by the letter E) | percentage control ([4]; 200 g/ha, 24 h): E (A percentage control of from 1 to 19 is indicated by the letter E) | percentage control ([4]; 200 g/ha, 48 h): E (A percentage control of from 1 to 19 is indicated by the letter E)
